Assay results from paper PMC2933939 (Bioorganic & medicinal chemistry, 2010).
pIC50: −log10 of the molar value. Like-named read-outs stand apart in the source and are kept apart here. Non-standard residues stand in square brackets, D forms with d. Residues, ends and D or L forms follow the SMILES beside them. *: point of attachment. dNMeF = CN[C@H](Cc1ccccc1)C(=O)O; Cha = N[C@@H](CC1CCCCC1)C(=O)O; NMeK = CN[C@@H](CCCCN)C(=O)O; dNMeK = CN[C@H](CCCCN)C(=O)O; ClZ = O=C(OCc1ccccc1Cl)*; Bn = c1ccc(C*)cc1

What was measured:
colon cancers = conditions: drug of choice for colon cancer treatment; no reference given; cited from earlier work
[1] = tested on: HCT-116 colon cancer cells; experiment: 3H-thymidine uptake cytotoxicity assay; assay type: cell-based

SMILES	cytotoxicity (in words) [1]	further results
O=c1[nH]cc(F)c(=O)[nH]1 [Compound 5-FU, 5-fluorouracil]		pIC50 (colon cancers): 5.30
CC(C)C[C@@H]1NC(=O)[C@H](Cc2ccccc2)NC(=O)[C@H](CCCCN)NC(=O)[C@H](CC(C)C)NC(=O)[C@H](C(C)C)NC1=O [Compound 32, Phe-Leu-Val-Leu-Lys] (cyclo(FLVLK))	inactive	
CC(C)C[C@@H]1NC(=O)[C@H](C(C)C)NC(=O)[C@@H](Cc2ccccc2)N(C)C(=O)[C@H](Cc2ccccc2)NC(=O)[C@H](CCCCN)NC1=O [Compound 30, Phe-N-Me-D-Phe-Val-Leu-Lys] (cyclo(F[dNMeF]VLK))	not active	
CC(C)[C@H]1NC(=O)[C@@H](Cc2ccccc2)NC(=O)[C@H](Cc2ccccc2)NC(=O)[C@H](COCc2ccccc2)NC(=O)[C@H](CC2CCCCC2)NC1=O [Compound 20, Phe-D-Phe-D-Val-Cha-Ser(Bn)] (cyclo([Cha]S(Bn)F[dF][dV]))	little cytotoxic activity	
CC(C)C[C@@H]1NC(=O)[C@H](Cc2ccccc2)NC(=O)[C@@H](Cc2ccccc2)NC(=O)[C@@H](CCCCNC(=O)OCc2ccccc2Cl)N(C)C(=O)[C@H](C(C)C)NC1=O [Compound 41, Phe-Leu-Val-N-Me-D-Lys(Cl-Cbz)-D-Phe] (cyclo(FLV[dNMeK](ClZ)[dF]))	not very potent at all	
CC(C)C[C@@H]1NC(=O)[C@H](Cc2ccccc2)NC(=O)[C@@H](Cc2ccccc2)N(C)C(=O)[C@@H](CCCCNC(=O)OCc2ccccc2Cl)NC(=O)[C@H](C(C)C)NC1=O [Compound 42, Phe-Leu-Val-D-Lys(Cl-Cbz)-N-Me-D-Phe] (cyclo(FLV[dK](ClZ)[dNMeF]))	remarkable cytotoxicity	
CC(C)[C@H]1NC(=O)[C@@H](Cc2ccccc2)N(C)C(=O)[C@H](Cc2ccccc2)NC(=O)[C@H](COCc2ccccc2)NC(=O)[C@H](CC2CCCCC2)NC1=O [Compound 19, Phe-N-Me-D-Phe-D-Val-Cha-Ser(Bn)] (cyclo([Cha]S(Bn)F[dNMeF][dV]))		half-life (Half-life (minutes) n1, n1): 45 min; half-life (Half-life (minutes) n2, n2): 30 min
CC(C)C[C@@H]1NC(=O)[C@H](Cc2ccccc2)NC(=O)[C@H](CCCCN)NC(=O)[C@H](CC(C)C)NC(=O)[C@@H](C(C)C)NC1=O [Compound 37, Phe-Leu-D-Val-Leu-Lys] (cyclo(FL[dV]LK))	inactive	
CC(C)C[C@@H]1NC(=O)[C@H](Cc2ccccc2)NC(=O)[C@H](CCCCN)N(C)C(=O)[C@H](CC(C)C)NC(=O)[C@H](C(C)C)NC1=O [Compound 35, Phe-Leu-Val-Leu-N-Me-Lys] (cyclo(FLVL[NMeK]))	inactive	
